Laboratory results reported in the supplement of paper PMC10307832.

Legend:
Assay in all cases: relative viability (nuclei count vs DMSO), 5 days (fraction); higher = more cells survive
[1] = compound: CCN(CCO)CCCC(C)Nc1ccnc2cc(Cl)ccc12 [Hydroxychloroquine] + Nc1nc2[nH]cc(CCc3ccc(C(=O)N[C@@H](CCC(=O)O)C(=O)O)cc3)c2c(=O)[nH]1 [Pemetrexed] (partner 0.2 µM)
Summary of the method: (§1)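 Medians of duplicate plates are given as relative viability. That measure is the nuclei count in treated wells divided by the count in vehicle wells. Counts were taken on 4× images of lung cancer cell lines in 1536-well plates, 5 days after pin-tool dosing the day after seeding with one drug alone or a fixed anchor-drug dose plus five library-drug doses (not always all listed) in √10 steps.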

[2] = compound: CCN(CCO)CCCC(C)Nc1ccnc2cc(Cl)ccc12 [Hydroxychloroquine] + COc1cccc2cc(-c3nc([C@H]4CC[C@H](C(=O)O)CC4)n4ncnc(N)c34)[nH]c12 [OSI-027] (partner 0.5 µM)
Summary of the method: as §1

[3] = compound: CCN(CCO)CCCC(C)Nc1ccnc2cc(Cl)ccc12 [Hydroxychloroquine] + COc1cc2c(Oc3ccc(NC(=O)C4(C(=O)Nc5ccc(F)cc5)CC4)cc3F)ccnc2cc1OCCCN1CCOCC1 [Foretinib] (partner 0.25 µM)
Summary of the method: as §1

[4] = compound: CCN(CCO)CCCC(C)Nc1ccnc2cc(Cl)ccc12 [Hydroxychloroquine] + NC(=O)Nc1cc(-c2cccc(F)c2)sc1C(=O)N[C@H]1CCCNC1 [AZD7762] (partner 0.2 µM)
Summary of the method: as §1

Cell Line | relative viability ([1]; first compound 0.5 µM) | relative viability ([1]; first compound 1.581 µM) | relative viability ([1]; first compound 5 µM) | relative viability ([1]; first compound 15.81 µM) | relative viability ([1]; first compound 50 µM) | relative viability ([2]; first compound 0.5 µM) | relative viability ([2]; first compound 1.581 µM) | relative viability ([2]; first compound 5 µM) | relative viability ([2]; first compound 15.81 µM) | relative viability ([2]; first compound 50 µM) | relative viability ([3]; first compound 0.5 µM) | relative viability ([3]; first compound 1.581 µM) | relative viability ([3]; first compound 5 µM) | relative viability ([3]; first compound 15.81 µM) | relative viability ([3]; first compound 50 µM) | relative viability ([4]; first compound 0.5 µM) | relative viability ([4]; first compound 1.581 µM) | relative viability ([4]; first compound 5 µM) | relative viability ([4]; first compound 15.81 µM) | relative viability ([4]; first compound 50 µM)
COR-L 105 | 1.12 | 1.01 | 0.967 | 1.05 | 1.08 | 0.643 | 0.598 | 0.708 | 0.739 | 0.668 | 0.896 | 1.11 | 0.951 | 1.23 | 0.997 | – | – | – | – | –
LK-2 | 0.299 | 0.261 | 0.256 | 0.274 | 0.206 | 0.201 | 0.198 | 0.155 | 0.206 | 0.208 | 1.31 | 1.41 | – | 1.28 | 0.955 | 0.424 | 0.334 | 0.447 | 0.411 | 0.312
NCI-H838 | 0.238 | 0.248 | 0.264 | 0.243 | 0.253 | 0.421 | 0.392 | 0.37 | 0.406 | 0.401 | 1.07 | 0.978 | 1.08 | 0.98 | 1.13 | 0.963 | 0.943 | 0.916 | 0.968 | 1.03
SK-LU-1 | 1.02 | 0.876 | 0.953 | 1.11 | 1.03 | 0.394 | 0.348 | 0.337 | 0.334 | 0.34 | 0.849 | 0.769 | 0.834 | 0.787 | 0.926 | – | – | – | – | –
NCI-H2023 | 0.267 | 0.22 | 0.246 | 0.238 | 0.295 | 0.468 | 0.336 | 0.402 | 0.338 | 0.442 | 0.806 | 0.739 | 0.749 | 0.779 | 0.776 | – | – | – | – | –
NCI-H322M | 0.639 | 0.609 | 0.601 | 0.608 | 0.592 | 0.557 | 0.535 | 0.634 | 0.519 | 0.609 | 1 | 0.937 | 0.934 | 1.03 | 0.935 | 0.681 | 0.433 | 0.447 | 0.487 | 0.482
NCI-H1666 | 0.878 | 0.765 | 0.846 | 0.755 | 0.844 | 0.816 | 0.81 | 0.834 | 0.82 | 0.808 | 0.969 | 0.949 | 0.876 | 0.894 | 0.872 | 0.891 | 0.791 | 0.806 | 0.774 | 0.72
NCI-H1648 | 0.844 | 0.785 | 0.734 | 0.859 | 0.694 | – | 0.283 | 0.273 | 0.254 | 0.274 | – | – | – | – | – | 0.657 | 0.758 | 0.575 | 0.531 | 0.562
NCI-H2087 | 0.634 | 0.669 | 0.7 | 0.709 | 0.771 | 0.584 | 0.375 | 0.529 | 0.672 | 0.78 | 1.21 | 1.21 | 1.18 | 1.11 | 0.972 | 1.33 | 1.19 | 1.46 | 1.32 | 1.48
LU99A | 0.179 | 0.194 | 0.157 | 0.198 | 0.206 | 0.304 | 0.258 | 0.327 | 0.283 | 0.329 | 0.914 | 0.724 | 0.786 | 0.789 | 0.861 | 0.427 | 0.367 | 0.533 | 0.393 | 0.317
HCC-366 | 0.157 | 0.151 | 0.14 | 0.18 | 0.177 | 0.896 | 0.932 | 0.673 | 0.862 | 1.05 | 0.938 | 0.891 | 0.902 | 0.945 | 0.923 | 0.228 | 0.381 | 0.289 | 0.235 | 0.384
EKVX | 0.385 | 0.394 | 0.32 | 0.385 | 0.423 | 0.797 | 0.851 | 0.79 | 0.758 | 0.776 | 0.824 | 0.795 | 0.753 | 0.767 | 0.75 | 0.549 | 0.772 | 0.753 | 0.653 | 0.759
NCI-H522 | 1.02 | – | 1.39 | 0.974 | 0.98 | 0.718 | 0.671 | 0.712 | 0.684 | 0.682 | – | – | – | – | – | 0.712 | – | 0.674 | 0.974 | 0.907
NCI-H1755 | 0.573 | 0.426 | 0.42 | 0.386 | 0.438 | 0.797 | 0.617 | 0.628 | 0.649 | 0.574 | 0.906 | 0.797 | 0.854 | 0.922 | 0.842 | 0.616 | 0.447 | 0.396 | 0.445 | 0.514
NCI-H650 | 0.979 | 0.868 | 0.966 | 1.06 | 0.889 | 0.566 | 0.557 | 0.61 | 0.555 | 0.545 | 1.04 | 0.888 | 0.983 | 1.03 | 0.97 | 1.07 | 1.05 | 0.924 | 0.956 | 0.986
LC-2-ad | 0.272 | 0.273 | 0.244 | 0.261 | 0.282 | 0.953 | 0.793 | 0.853 | 0.805 | 0.868 | 0.956 | 0.895 | 0.895 | 0.921 | 1.05 | 0.898 | 0.822 | 0.842 | 0.832 | 0.85
NCI-H1793 | 0.982 | 0.913 | 0.753 | 0.628 | 0.632 | 0.334 | 0.226 | 0.226 | 0.234 | 0.262 | 0.821 | 0.618 | 0.624 | 0.661 | 0.534 | 0.46 | 0.615 | 0.452 | 0.402 | 0.404
